In PubChem BioAssay AID330 (DTP/NCI, 2004):
Where “and” joins values, the source holds several entries; their conditions need not be identical. Equal values may be shown once. Inconclusive results and toxic doses are left out. The calls were made as follows: active = survival T/C of 150% or more; inactive = T/C below 125% in these data.

Tested on: P388 leukemia ip, CD2F1 mice, survival T/C
Experiment: NCI In Vivo Anticancer Drug Screen. Data for tumor model P388 Leukemia (intraperitoneal) in CD2F1 (CDF1) mice
Conditions: endpoint: median survival time, higher = longer survival
Summary of the method: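 Mice carrying the transplanted tumor received test compound or vehicle. Survival was recorded in each group, and the value is the treated-group measurement divided by that of the vehicle-treated control group.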

[1] = dose: 60.0 mg/kg/injection, schedule: Q01DX005 (ip), vehicle: saline with Tween-80
[2] = dose: 120.0 mg/kg/injection, schedule: Q01DX005 (ip), vehicle: saline with Tween-80
[3] = dose: 240.0 mg/kg/injection, schedule: Q01DX005 (ip), vehicle: saline with Tween-80

Measured: T/C

Cc1ccc(/C=C/c2ccc3ccccc3c2)cc1
inactive: dose: 50.0 mg/kg/injection, schedule: Q01DX009 (ip), vehicle: other 108 % of control | dose: 100.0 mg/kg/injection, schedule: Q01DX009 (ip), vehicle: other 98 % of control | dose: 200.0 mg/kg/injection, schedule: Q01DX009 (ip), vehicle: other 120 % of control

Cc1cc2nc3c(nc2cc1C)CCCCCC3
inactive: dose: 85.5 mg/kg/injection, schedule: Q01DX001 (ip), vehicle: Klucel (hydroxypropylcellulose) (HPC) 92 % of control | dose: 171.0 mg/kg/injection, schedule: Q01DX001 (ip), vehicle: Klucel (hydroxypropylcellulose) (HPC) 90 % of control | dose: 342.0 mg/kg/injection, schedule: Q01DX001 (ip), vehicle: Klucel (hydroxypropylcellulose) (HPC) 90 % of control

NNc1n[nH]c(=O)c2cnccc12
inactive: dose: 25.0 mg/kg/injection, schedule: Q04DX002 (ip), vehicle: saline with Tween-80 96 % of control | dose: 50.0 mg/kg/injection, schedule: Q04DX002 (ip), vehicle: saline with Tween-80 93 % of control | dose: 100.0 mg/kg/injection, schedule: Q04DX002 (ip), vehicle: saline with Tween-80 100 % of control and 95 % of control

Oc1ccc(C/C=C/c2ccccc2)cc1O
inactive: dose: 2.5 mg/kg/injection, schedule: Q01DX009 (ip), vehicle: saline + alcohol 104 % of control | dose: 5.0 mg/kg/injection, schedule: Q01DX009 (ip), vehicle: saline + alcohol 104 % of control | dose: 10.0 mg/kg/injection, schedule: Q01DX009 (ip), vehicle: saline + alcohol 101 % of control

O=NC1C(=O)NC(=S)NC1=O
inactive: dose: 12.5 mg/kg/injection, schedule: Q04DX002 (ip), vehicle: saline with Tween-80 100 % of control

CS(=O)CC(=N\N)/C(CS(C)=O)=N/N (stereo not drawn)
inactive: dose: 60.0 mg/kg/injection, schedule: Q01DX005 (ip), vehicle: saline 100 % of control | dose: 120.0 mg/kg/injection, schedule: Q01DX005 (ip), vehicle: saline 95 % of control | dose: 240.0 mg/kg/injection, schedule: Q01DX005 (ip), vehicle: saline 102 % of control

CCn1c2ccccc2c2cc(N=Nc3cc(CN(C)C)c(O)c4ncccc34)ccc21
inactive: dose: 50.0 mg/kg/injection, schedule: Q01DX005 (ip), vehicle: saline with Tween-80 100 % of control | dose: 100.0 mg/kg/injection, schedule: Q01DX005 (ip), vehicle: saline with Tween-80 100 % of control | dose: 200.0 mg/kg/injection, schedule: Q01DX005 (ip), vehicle: saline with Tween-80 100 % of control

O=C(CCC(=O)C1CCCC1=O)Nc1cccc([N+](=O)[O-])c1 (stereo not drawn)
inactive: [1] 102 % of control | [2] 102 % of control | [3] 101 % of control

C=C1C(C2=NCCN2O)OC2OC(C)(C)OC12 (stereo not drawn)
inactive: dose: 100.0 mg/kg/injection, schedule: Q04DX002 (ip), vehicle: Klucel (hydroxypropylcellulose) (HPC) 98 % of control | dose: 200.0 mg/kg/injection, schedule: Q04DX002 (ip), vehicle: Klucel (hydroxypropylcellulose) (HPC) 103 % of control | dose: 400.0 mg/kg/injection, schedule: Q04DX002 (ip), vehicle: Klucel (hydroxypropylcellulose) (HPC) 97 % of control

COc1cc2oc(=O)ccc2cc1[C@@H]1OC(=O)C2(C)O[C@@H]12 (stereo partly drawn)
inactive: dose: 2.5 mg/kg/injection, schedule: Q01DX009 (ip), vehicle: saline 112 % of control | dose: 5.0 mg/kg/injection, schedule: Q01DX009 (ip), vehicle: saline 93 % of control | dose: 6.0 mg/kg/injection, schedule: Q01DX009 (ip), vehicle: Klucel (hydroxypropylcellulose) (HPC) 107 % of control | dose: 6.0 mg/kg/injection, schedule: Q01DX009 (ip), vehicle: saline with Tween-80 110 % of control | dose: 8.0 mg/kg/injection, schedule: Q01DX009 (ip), vehicle: Klucel (hydroxypropylcellulose) (HPC) 114 % of control | dose: 8.0 mg/kg/injection, schedule: Q01DX009 (ip), vehicle: saline with Tween-80 117 % of control | dose: 10.0 mg/kg/injection, schedule: Q01DX009 (ip), vehicle: Klucel (hydroxypropylcellulose) (HPC) 105 % of control | dose: 10.0 mg/kg/injection, schedule: Q01DX009 (ip), vehicle: saline with Tween-80 110 % of control | dose: 12.0 mg/kg/injection, schedule: Q01DX009 (ip), vehicle: Klucel (hydroxypropylcellulose) (HPC) 103 % of control | dose: 12.0 mg/kg/injection, schedule: Q01DX009 (ip), vehicle: saline with Tween-80 110 % of control

CC1=C(C(=O)CC(=O)C(=O)Nc2ccc(C)cc2)Sc2ccccc2N1
inactive: [1] 105 % of control | [2] 108 % of control | [3] 106 % of control
